What was measured:
Settings in all cases: incubation time: 72 h
[1] = tested on: BT-474; assay: normalised response (% of control), CellTox Green; higher = less cell death (100 = DMSO, 0 = benzethonium chloride kill control)
In short: (§1)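 Breast cancer cell lines were exposed for 72 h in 384-well plates to compound at 5 concentrations, 10-fold apart, covering a 10,000-fold range fixed for each compound. Plates were read for CellTox Green fluorescence and CellTiter-Glo luminescence and normalised to 0.1 % DMSO (100) and a positive kill control (0). Each value is the normalised signal at one concentration of the series.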

[2] = tested on: BT-549; assay: as above
In short: as §1

[3] = tested on: CAL-120; assay: as above
In short: as §1

[4] = tested on: CAL-148; assay: as above
In short: as §1

[5] = tested on: CAL-51; assay: as above
In short: as §1

[6] = tested on: CAL-85-1; assay: as above
In short: as §1

[7] = tested on: DU-4475; assay: as above
In short: as §1

[8] = tested on: HCC1143; assay: as above
In short: as §1

[9] = tested on: HCC1599; assay: as above
In short: as §1

[10] = tested on: HCC1937; assay: as above
In short: as §1

[11] = tested on: HDQ-P1; assay: as above
In short: as §1

[12] = tested on: Hs578T; assay: as above
In short: as §1

[13] = tested on: MCF-10A; assay: as above
In short: as §1

[14] = tested on: MDA-MB-231; assay: as above
In short: as §1

[15] = tested on: MDA-MB-436; assay: as above
In short: as §1

[16] = tested on: MDA-MB-453; assay: as above
In short: as §1

[17] = tested on: MDA-MB-468; assay: as above
In short: as §1

[18] = tested on: MFM-223; assay: as above
In short: as §1

[19] = tested on: BT-474; assay: normalised response (% of control), CellTiter-Glo; higher = more viable cells (100 = DMSO, 0 = benzethonium chloride kill control)
Experimental: (§2)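 DSRT, 72 h incubation, CellTox Green / CellTiter-Glo readout. Signal is normalised to DMSO and benzethonium chloride controls. Value is the normalised response at the highest dose.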

[20] = tested on: BT-549; assay: as above
Experimental: as §2

[21] = tested on: CAL-120; assay: as above
Experimental: as §2

[22] = tested on: CAL-148; assay: as above
Experimental: as §2

[23] = tested on: CAL-51; assay: as above
Experimental: as §2

[24] = tested on: CAL-85-1; assay: as above
Experimental: as §2

[25] = tested on: DU-4475; assay: as above
Experimental: as §2

[26] = tested on: HCC1143; assay: as above
Experimental: as §2

[27] = tested on: HCC1599; assay: as above
Experimental: as §2

[28] = tested on: HCC1937; assay: as above
Experimental: as §2

[29] = tested on: HDQ-P1; assay: as above
Experimental: as §2

[30] = tested on: Hs578T; assay: as above
Experimental: as §2

[31] = tested on: MCF-10A; assay: as above
Experimental: as §2

[32] = tested on: MDA-MB-231; assay: as above
Experimental: as §2

[33] = tested on: MDA-MB-436; assay: as above
Experimental: as §2

[34] = tested on: MDA-MB-453; assay: as above
Experimental: as §2

[35] = tested on: MDA-MB-468; assay: as above
Experimental: as §2

[36] = tested on: MFM-223; assay: as above
Experimental: as §2

[37] = tested on: SK-BR-3; assay: as above
Experimental: as §2

[38] = tested on: CAL-148; assay: normalised viability (% of control), CellTiter-Blue; higher = more viable cells (about 100 = DMSO control)
Experimental: (§3)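 DSRT, CellTiter-Blue viability, 72 h incubation. Signal is normalised to DMSO and benzethonium chloride controls. Value is the normalised response at dose 6.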

[39] = tested on: CAL-51; assay: as above
Experimental: as §3

[40] = tested on: CAL-85-1; assay: as above
Experimental: as §3

[41] = tested on: DU-4475; assay: as above
Experimental: as §3

[42] = tested on: HDQ-P1; assay: as above
Experimental: as §3

[43] = tested on: MDA-MB-453; assay: as above
Experimental: as §3

COc1cc(Nc2ncc3c(n2)-c2ccc(Cl)cc2C(c2c(F)cccc2OC)=NC3)ccc1C(=O)O [Alisertib] (10000 nM)
normalised response [1]: 43.6% | normalised response [2]: 63% | normalised response [3]: 96.5% | normalised response [4]: 63.4% | normalised response [5]: 11.4% | normalised response [6]: 91.2% | normalised response [7]: 94% | normalised response [8]: 76% | normalised response [9]: 93.1% | normalised response [10]: 31.6% | normalised response [11]: 94.7% | normalised response [12]: 114% | normalised response [13]: -35.5% | normalised response [14]: 79.3% | normalised response [15]: 78.5% | normalised response [16]: 70.1% | normalised response [17]: -5.36% | normalised response [18]: 77.6% | normalised response [19]: 62% | normalised response [20]: 37.2% | normalised response [21]: 62.2% | normalised response [22]: 49.7% | normalised response [23]: 43.5% | normalised response [24]: 90.5% | normalised response [25]: 74% | normalised response [26]: 61.9% | normalised response [27]: 81.5% | normalised response [28]: 64.5% | normalised response [29]: 60.5% | normalised response [30]: 66.9% | normalised response [31]: 61.4% | normalised response [32]: 64.5% | normalised response [33]: 58.7% | normalised response [34]: 122% | normalised response [35]: 24.1% | normalised response [36]: 36.7% | normalised response [37]: 61.5%

CC[C@]1(O)C[C@@H]2CN(CCc3c([nH]c4ccccc34)[C@@](C(=O)OC)(c3cc4c(cc3OC)N(C)[C@H]3[C@@](O)(C(=O)OC)[C@H](OC(C)=O)[C@]5(CC)C=CCN6CC[C@]43[C@@H]65)C2)C1 [Vinblastine] (30 nM)
normalised viability [38]: 17.2% | normalised viability [39]: 49.7% | normalised viability [40]: 36.2% | normalised viability [41]: 67.4% | normalised viability [42]: 31.5% | normalised viability [43]: 29.1%

Cc1c2oc3c(C)ccc(C(=O)N[C@@H]4C(=O)N[C@H](C(C)C)C(=O)N5CCC[C@H]5C(=O)N(C)CC(=O)N(C)[C@@H](C(C)C)C(=O)O[C@@H]4C)c3nc-2c(C(=O)N[C@@H]2C(=O)N[C@H](C(C)C)C(=O)N3CCC[C@H]3C(=O)N(C)CC(=O)N(C)[C@@H](C(C)C)C(=O)O[C@@H]2C)c(N)c1=O [Dactinomycin] (30 nM)
normalised viability [38]: 1.36% | normalised viability [39]: 4.91% | normalised viability [40]: 4.36% | normalised viability [41]: 0% | normalised viability [42]: 16.6% | normalised viability [43]: 7.48%

Nc1ccn([C@@H]2O[C@H](CO)[C@@H](O)[C@@H]2O)c(=O)n1 [Cytarabine] (300 nM)
normalised viability [38]: 42.2% | normalised viability [39]: 51.2% | normalised viability [40]: 89.2% | normalised viability [41]: 72.6% | normalised viability [42]: 75.1% | normalised viability [43]: 87.5%

Clc1ccc(C(c2ccccc2Cl)C(Cl)Cl)cc1 (stereo not drawn) [Mitotane] (300 nM)
normalised viability [38]: 101% | normalised viability [39]: 109% | normalised viability [40]: 94.5% | normalised viability [41]: 95% | normalised viability [42]: 92.5% | normalised viability [43]: 110%

S=c1[nH]cnc2nc[nH]c12 [Mercaptopurine] (300 nM)
normalised viability [38]: 102% | normalised viability [39]: 97.8% | normalised viability [40]: 83.8% | normalised viability [41]: 112% | normalised viability [42]: 76.6% | normalised viability [43]: 110%

C[C@]1(c2nc3c(C(N)=O)cccc3[nH]2)CCCN1 [Veliparib] (300 nM)
normalised viability [38]: 100% | normalised viability [39]: 105% | normalised viability [40]: 85.2% | normalised viability [41]: 89.9% | normalised viability [42]: 65.5% | normalised viability [43]: 101%

CN(C)C/C=C/C(=O)Nc1cc2c(Nc3ccc(F)c(Cl)c3)ncnc2cc1O[C@H]1CCOC1 [Afatinib] (300 nM)
normalised viability [38]: 74.2% | normalised viability [39]: 101% | normalised viability [40]: 52.9% | normalised viability [41]: 84.6% | normalised viability [42]: 46.1% | normalised viability [43]: 36.5%

C=CC[C@@H]1/C=C(\C)C[C@H](C)C[C@H](OC)[C@H]2O[C@@](O)(C(=O)C(=O)N3CCCC[C@H]3C(=O)O[C@H](/C(C)=C/[C@@H]3CC[C@@H](O)[C@H](OC)C3)[C@H](C)[C@@H](O)CC1=O)[C@H](C)C[C@@H]2OC [Tacrolimus] (300 nM)
normalised viability [38]: 106% | normalised viability [39]: 103% | normalised viability [40]: 101% | normalised viability [41]: 99.6% | normalised viability [42]: 119% | normalised viability [43]: 111%

CCN1CCN(c2ccc(Nc3cc(N(C)C(=O)Nc4c(Cl)c(OC)cc(OC)c4Cl)ncn3)cc2)CC1 [NVP-BGJ398] (1000 nM)
normalised response [1]: 102% | normalised response [2]: 84.6% | normalised response [3]: 89.3% | normalised response [4]: 98.1% | normalised response [5]: 105% | normalised response [6]: 119% | normalised response [7]: 97.7% | normalised response [8]: 105% | normalised response [9]: 100% | normalised response [10]: 52.5% | normalised response [11]: 101% | normalised response [12]: 115% | normalised response [13]: 73.2% | normalised response [15]: 102% | normalised response [16]: 81.6% | normalised response [17]: 71.5% | normalised response [18]: 94.1% | normalised response [19]: 91.3% | normalised response [20]: 75.9% | normalised response [21]: 71.1% | normalised response [22]: 96.5% | normalised response [23]: 128% | normalised response [24]: 101% | normalised response [25]: 100% | normalised response [26]: 93.6% | normalised response [27]: 98.7% | normalised response [28]: 95.7% | normalised response [29]: 99.8% | normalised response [30]: 86.2% | normalised response [31]: 101% | normalised response [32]: 96.2% | normalised response [33]: 92.7% | normalised response [34]: 105% | normalised response [35]: 97.2% | normalised response [36]: 50.3% | normalised response [37]: 97.7%

CC(=O)O[C@]1(C(C)=O)CC[C@H]2[C@@H]3C=C(C)C4=CC(=O)CC[C@]4(C)[C@H]3CC[C@@]21C [Megestrol acetate] (10000 nM)
normalised response [1]: 99.2% | normalised response [2]: 105% | normalised response [3]: 96.6% | normalised response [4]: 99.9% | normalised response [5]: 111% | normalised response [6]: 109% | normalised response [7]: 97.6% | normalised response [8]: 112% | normalised response [9]: 95.9% | normalised response [10]: 84% | normalised response [12]: 58.5% | normalised response [13]: 102% | normalised response [14]: 123% | normalised response [15]: 88.3% | normalised response [16]: 99.8% | normalised response [17]: 176% | normalised response [18]: 103% | normalised response [19]: 111% | normalised response [20]: 107% | normalised response [21]: 90% | normalised response [22]: 88.7% | normalised response [23]: 123% | normalised response [24]: 97.7% | normalised response [25]: 93.9% | normalised response [26]: 102% | normalised response [27]: 99.5% | normalised response [28]: 98% | normalised response [29]: 102% | normalised response [30]: 94.5% | normalised response [31]: 135% | normalised response [32]: 124% | normalised response [33]: 96% | normalised response [34]: 91.3% | normalised response [35]: 95.9% | normalised response [36]: 91.7% | normalised response [37]: 89%

O=C(c1ccc(C(=O)N2CCC(N3CCCC3)CC2)c(Nc2ccccc2)c1)N1CCC(N2CCCC2)CC1 [UNC1215] (30000 nM)
normalised response [1]: 102% | normalised response [2]: 86.1% | normalised response [3]: 98.6% | normalised response [4]: 101% | normalised response [5]: 106% | normalised response [6]: 116% | normalised response [7]: 98.2% | normalised response [9]: 94.3% | normalised response [10]: 98.5% | normalised response [11]: 50.2% | normalised response [12]: 84.2% | normalised response [13]: 82.8% | normalised response [14]: 88.8% | normalised response [15]: 93.4% | normalised response [16]: 102% | normalised response [17]: 135% | normalised response [18]: 105% | normalised response [19]: 101% | normalised response [20]: 98% | normalised response [21]: 107% | normalised response [22]: 93.8% | normalised response [23]: 99.6% | normalised response [24]: 92.2% | normalised response [25]: 94.8% | normalised response [26]: 96.5% | normalised response [27]: 96% | normalised response [28]: 94.2% | normalised response [29]: 97.7% | normalised response [30]: 99.6% | normalised response [31]: 95.4% | normalised response [32]: 93.9% | normalised response [33]: 93.2% | normalised response [34]: 99.8% | normalised response [35]: 95% | normalised response [36]: 95.1% | normalised response [37]: 94%

Reference: the supplement of paper PMC4862054
